Assay results as given in patent US7772246B2 (Pfizer Inc., priority 2007, dated 2010).

Each molecule was assayed against T1, b-Raf (Homo sapiens, UniProt P15056, V600E) (assay: Raf cellular assay (phospho-Mek1/2 ELISA in A2058 cells)). Conditions: Table 2; human melanoma A2058 cells (b-Raf mutation), Mek1/2 Ser217/221 phosphorylation, 1 hour incubation; read-out: pMEK IC50.
T1 construct: endogenous in cells; host or cells: A2058 human melanoma cells
T1 sequence (P15056 whole entry V600E): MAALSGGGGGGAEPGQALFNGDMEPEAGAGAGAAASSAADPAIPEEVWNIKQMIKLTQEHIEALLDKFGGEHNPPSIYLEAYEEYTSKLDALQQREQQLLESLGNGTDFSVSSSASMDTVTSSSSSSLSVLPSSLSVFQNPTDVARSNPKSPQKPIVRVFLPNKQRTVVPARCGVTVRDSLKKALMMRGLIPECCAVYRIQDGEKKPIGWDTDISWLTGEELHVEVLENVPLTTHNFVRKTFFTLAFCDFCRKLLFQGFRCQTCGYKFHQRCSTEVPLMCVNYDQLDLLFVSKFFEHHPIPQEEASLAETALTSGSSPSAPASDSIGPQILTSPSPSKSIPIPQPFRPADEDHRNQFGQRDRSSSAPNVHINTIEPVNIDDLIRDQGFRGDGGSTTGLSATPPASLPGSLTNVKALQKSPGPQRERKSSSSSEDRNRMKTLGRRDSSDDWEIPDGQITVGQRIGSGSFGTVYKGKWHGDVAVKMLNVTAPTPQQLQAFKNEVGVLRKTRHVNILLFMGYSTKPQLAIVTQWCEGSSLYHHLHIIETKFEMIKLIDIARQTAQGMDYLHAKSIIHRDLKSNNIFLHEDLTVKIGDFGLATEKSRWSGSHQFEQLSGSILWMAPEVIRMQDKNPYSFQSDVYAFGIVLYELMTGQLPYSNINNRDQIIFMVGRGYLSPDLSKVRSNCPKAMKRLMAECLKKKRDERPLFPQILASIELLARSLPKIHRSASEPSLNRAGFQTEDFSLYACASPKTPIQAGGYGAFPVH
Format: cell-based
Procedure: Compounds of the present invention were evaluated for potency against b-Raf using a cellular assay as follows. The activity of Raf kinases in cells is determined by measuring the level of phosphorylation of Mek1/2 at serine 217/221, the site phosphorylated by Raf kinases in vivo. Mek1/2 Ser phosphorylation is measured using anti-phospho-Mek1/2 antibodies (Cell Signaling #9121) in an ELISA format.
Healthy growing human melanoma A2058 cells (harboring a b-Raf mutation) are used for the assay. A2058 cells are grown in 10% FBS DMEM medium. When the cells are near 85%+confluence, the cells are rinsed with PBS once and trypsinized with trypsin/EDTA for 3 minutes. The cells are resuspended in 10% FBS DMEM and are centrifuged down at 1000 rpm for 5 minutes. The cells are resuspended in 10% FBS DMEM and counted on a cell counter. The cells are seeded at 50,000 cells/well in a volume of 100 μL/well in 10% FBS DMEM in a 96 well flat-bottom plate. The negative control wells receive only 100 μL of 10% FBS DMEM medium without cells. The plate is incubated overnight in a cell culture incubator with 5% CO2 at 37° C.
On day 2, testing compounds are prepared in 10% FBS DMEM medium and serially diluted at 1:3 for 11 test concentrations. Each concentration of the compounds is tested in duplicate. The compound solutions are added at 25 μL/well to the corresponding wells in the cell plate, and 25 μL/well of the vehicle (0.5% DMSO in 10% FBS DMEM) is added to the negative control wells (no cells) and the positive control wells (cells without compounds). The plate is incubated for 1 hour in a cell culture incubator with 5% CO2 at 37° C. After 1 hour of incubation, the medium is removed, 100 μL/well of cell lysis buffer is added into the cell plate, and the plate is shaken for 15 minutes at room temperature. After 15 minutes, the cell lysates are transferred to an ELISA plate (pre-coated with anti-Mek1 anti-body, Cell Signaling #2352), and the plate is incubated with gentle shaking for 2 hours at room temperature. After 2 hours, the contents of the wells are aspirated and the wells are washed 4 times with wash buffer. 100 μL of phospho-Mek1/2 detection antibody (Cell Signaling #9121) is added into each well and the plate is incubated with gentle shaking for 1 hour at room temperature. After 1 hour, the wells are aspirated and washed 4 times with wash buffer. 100 μL of anti-rabbit IgG HRP-linked antibody (Cell Signaling #7074) is added to each well, and the plate is incubated with gentle shaking for 1 hour at room temperature. After 1 hour, the contents of the wells are aspirated and the wells are washed 4 times with wash buffer. 100 μL of TMB substrate solution (Sigma #T0440) is added into each well, and the plate is incubated with gentle shaking at room temperature for 10 to 20 minutes. After color development, 100 μL of stop solution (1N hydrochloric acid) is added to each well to terminate color development. The plate is read at 450 nm on an ELISA plate reader.
`Cc1cn2cc(-c3nn(C(C)C)cc3-c3ccnc(NC[C@H](C)O)n3)cnc2n1` [Example B-8, (2S)-1-(4-(1-isopropyl-3-(2-methylimidazo[1,2-a]pyrimidin-6-yl)-1H-pyrazol-4-yl)pyrimidin-2-ylamino)propan-2-ol] was tested, and the IC50 was 8.49 µM.

Same assay, conditions: Table 3; human melanoma A2058 cells (b-Raf mutation), Mek1/2 Ser217/221 phosphorylation, 1 hour incubation; read-out: pMEK IC50
Work on `Cc1[nH]c2ncc(-c3nn(C(C)C)cc3-c3ccnc(NC[C@H](C)O)n3)cc2c1Cl` [Example B-97, (2S)-1-({4-[3-(3-chloro-2-methyl-1H-pyrrolo[2,3-b]pyridin-5-yl)-1-isopropyl-1H-pyrazol-4-yl]pyrimidin-2-yl}amino)propan-2-ol] yielded an IC50 of 0.174 µM.
With `C[C@H](O)CNc1nccc(-c2cn(CC(F)F)nc2-c2cnc3[nH]cc(Cl)c3c2)n1` [Example B-96, (2S)-1-({4-[3-(3-chloro-1H-pyrrolo[2,3-b]pyridin-5-yl)-1-(2,2-difluoroethyl)-1H-pyrazol-4-yl]pyrimidin-2-yl}amino)propan-2-ol] the IC50 was 0.0141 µM.
`Cc1cc(-c2nn(C(C)(C)CO)cc2-c2ccnc(NCCC#N)n2)cnc1N` [Example B-47, 3-({4-[3-(6-amino-5-methylpyridin-3-yl)-1-(2-hydroxy-1,1-dimethylethyl)-1H-pyrazol-4-yl]pyrimidin-2-yl}amino)-propanenitrile] gave an IC50 of 0.0862 µM.
`CC(C)n1cc(-c2ccnc(NCCC#N)n2)c(-c2cnc3[nH]cc(F)c3c2)n1` [Example B-19, 3-({4-[3-(3-fluoro-1H-pyrrolo[2,3-b]pyridin-5-yl)-1-isopropyl-1H-pyrazol-4-yl]pyrimidin-2-yl}amino)propanenitrile] was tested, and the IC50 was 0.00271 µM.
`CC1CNc2ncc(-c3nn(CC(F)F)cc3-c3ccnc(NC[C@H](C)O)n3)cc21` (stereo partly drawn) [Example B-87, (2S)-1-(4-(1-(2,2-difluoroethyl)-3-(3-methyl-2,3-dihydro-1H-pyrrolo[2,3-b]pyridin-5-yl)-1H-pyrazol-4-yl)pyrimidin-2-ylamino)propan-2-ol] gave an IC50 of 0.51 µM.
`Cc1c[nH]c2ncc(-c3nn(C(C)(C)CO)cc3-c3ccnc(N)n3)cc12` [Example B-58, 2-[4-(2-aminopyrimidin-4-yl)-3-(3-methyl-1H-pyrrolo[2,3-b]pyridin-5-yl)-1H-pyrazol-1-yl]-2-methylpropan-1-ol] gave an IC50 of 0.00986 µM.
Work on `N#CCCNc1nccc(-c2cn(CC(F)F)nc2-c2cnc3[nH]cc(F)c3c2)n1` [Example B-21, 3-({4-[1-(2,2-difluoroethyl)-3-(3-fluoro-1H-pyrrolo[2,3-b]pyridin-5-yl)-1H-pyrazol-4-yl]pyrimidin-2-yl}amino)propanenitrile] yielded an IC50 of 0.00195 µM.
Work on `C[C@H](O)CNc1nccc(-c2cn(C3COC3)nc2-c2cnc3[nH]cc(Cl)c3c2)n1` [Example B-99, (2S)-1-({4-[3-(3-chloro-1H-pyrrolo[2,3-b]pyridin-5-yl)-1-oxetan-3-yl-1H-pyrazol-4-yl]pyrimidin-2-yl}amino)propan-2-ol] yielded an IC50 of 0.235 µM.
With `N#CCCNc1nccc(-c2cn(CC(F)F)nc2-c2cnc3c(ccn3CCC#N)c2)n1` [Example D-15] the IC50 was 0.107 µM.
`Cc1n[nH]c2ncc(-c3nn(C(C)C)cc3-c3ccnc(NCCC#N)n3)cc12` [Example B-51, 3-({4-[1-isopropyl-3-(3-methyl-1H-pyrazolo[3,4-b]pyridin-5-yl)-1H-pyrazol-4-yl]pyrimidin-2-yl}amino)propanenitrile] showed an IC50 of 0.011 µM.
For `COc1cc(-c2nn(C3CC3)cc2-c2ccnc(NCC(F)F)n2)cnc1N` [Example B-59, 4-[3-(6-amino-5-methoxypyridin-3-yl)-1-cyclopropyl-1H-pyrazol-4-yl]-N-(2,2-difluoroethyl)pyrimidin-2-amine], the IC50 was 0.00686 µM.
`Cc1cc(-c2nn(CC(F)F)cc2-c2ccnc(NC[C@H](C)O)n2)cnc1N` [Example B-18, (2S)-1-({4-[3-(6-amino-5-methylpyridin-3-yl)-1-(2,2-difluoroethyl)-1H-pyrazol-4-yl]pyrimidin-2-yl}amino)propan-2-ol] gave an IC50 of 0.58 µM.
With `C[C@H](O)CNc1nccc(-c2cn(CC(F)F)nc2-c2ccnc3[nH]ccc23)n1` [Example B-29, (2S)-1-({4-[1-(2,2-difluoroethyl)-3-(1H-pyrrolo[2,3-b]pyridin-4-yl)-1H-pyrazol-4-yl]pyrimidin-2-yl}amino)propan-2-ol] the IC50 was 9.39 µM.
Molecule `COc1cc(-c2nn(C(C)(C)C)cc2-c2ccncn2)cnc1N` [Example F-3, 5-(1-tert-butyl-4-pyrimidin-4-yl-1H-pyrazol-3-yl)-3-methoxypyridin-2-amine] has an IC50 of 0.0554 µM.
For `CC(C)(CO)n1cc(-c2ccnc(NCCC#N)n2)c(-c2cnc3[nH]cc(F)c3c2)n1` [Example B-24, 3-({4-[3-(3-fluoro-1H-pyrrolo[2,3-b]pyridin-5-yl)-1-(2-hydroxy-1,1-dimethylethyl)-1H-pyrazol-4-yl]pyrimidin-2-yl}amino)propanenitrile], the IC50 was 0.00326 µM.
`COc1cc(-c2nn(C3CCOCC3)cc2-c2ccnc(NCC(F)F)n2)cnc1N` [Example B-70, 4-[3-(6-amino-5-methoxypyridin-3-yl)-1-(tetrahydro-2H-pyran-4-yl)-1H-pyrazol-4-yl]-N-(2,2-difluoroethyl)-pyrimidin-2-amine] gave an IC50 of 0.00233 µM.
With `COc1cncc(-c2nn(C(C)(C)CO)cc2-c2ccnc(NCCC#N)n2)c1` [Example B-49, 3-(4-(1-(1-hydroxy-2-methylpropan-2-yl)-3-(5-methoxypyridin-3-yl)-1H-pyrazol-4-yl)pyrimidin-2-ylamino)propanenitrile] the IC50 was 0.0224 µM.
`CC(C)(CO)n1cc(-c2ccnc(NCCC#N)n2)c(-c2cnc3c(c2)CCN3)n1` [Example B-22, 3-({4-[3-(2,3-dihydro-1H-pyrrolo[2,3-b]pyridin-5-yl)-1-(2-hydroxy-1,1-dimethylethyl)-1H-pyrazol-4-yl]pyrimidin-2-yl}amino)propanenitrile] was tested, and the IC50 was 0.0263 µM.
Work on `CC(=O)c1cc(-c2nn(C(C)C)cc2-c2ccnc(NCCC#N)n2)cnc1N` [Example B-52, 3-({4-[3-(5-acetyl-6-aminopyridin-3-yl)-1-isopropyl-1H-pyrazol-4-yl]pyrimidin-2-yl}amino)propanenitrile] yielded an IC50 of 0.0093 µM.
Work on `Cc1c[nH]c2ncc(-c3nn(C(F)F)cc3-c3ccnc(N)n3)cc12` [Example B-40, 4-[1-(difluoromethyl)-3-(3-methyl-1H-pyrrolo[2,3-b]pyridin-5-yl)-1H-pyrazol-4-yl]pyrimidin-2-amine] yielded an IC50 of 0.0482 µM.
With `C[C@H](O)CNc1nccc(-c2cn(C3CC(F)(F)C3)nc2-c2cnc3[nH]cc(Cl)c3c2)n1` [Example B-17, (2S)-1-({4-[3-(3-chloro-1H-pyrrolo[2,3-b]pyridin-5-yl)-1-(3,3-difluorocyclobutyl)-1H-pyrazol-4-yl]pyrimidin-2-yl}amino)propan-2-ol] the IC50 was 0.0619 µM.
`C[C@H](O)CNc1nccc(-c2cn(CC(F)F)nc2-c2cnc3ccn(C)c3c2)n1` [Example B-35, (2S)-1-({4-[1-(2,2-difluoroethyl)-3-(1-methyl-1H-pyrrolo[3,2-b]pyridin-6-yl)-1H-pyrazol-4-yl]pyrimidin-2-yl}amino)propan-2-ol] gave an IC50 of 0.193 µM.
With `Cc1c[nH]c2ncc(-c3nn(C(C)(C)C)cc3-c3ccnc(NC[C@H](C)O)n3)cc12` [Example B-66, (2S)-1-({4-[1-tert-butyl-3-(3-methyl-1H-pyrrolo[2,3-b]pyridin-5-yl)-1H-pyrazol-4-yl]pyrimidin-2-yl}amino)propan-2-ol] the IC50 was 0.00287 µM.
`COc1ccc(Nc2nccc(-c3cn(CC(F)F)nc3-c3cnc4[nH]ccc4c3)n2)cn1` [Example B-81, 4-[1-(2,2-difluoroethyl)-3-(1H-pyrrolo[2,3-b]pyridin-5-yl)-1H-pyrazol-4-yl]-N-(6-methoxypyridin-3-yl)pyrimidin-2-amine] was tested, and the IC50 was 0.0715 µM.
With `CC(C)(C)n1cc(-c2ccnc(NCCC#N)n2)c(-c2cnc3c(c2)CCN3)n1` [Example B-72, 3-({4-[1-tert-butyl-3-(2,3-dihydro-1H-pyrrolo[2,3-b]pyridin-5-yl)-1H-pyrazol-4-yl]pyrimidin-2-yl}amino)propanenitrile] the IC50 was 0.00815 µM.
